Measurements published in PubChem BioAssay (NCI).
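Briefly, cells in 96-well plates were exposed to five compound concentrations for 48 h, and endpoints were estimated by linear interpolation. The concentration for 50% growth inhibition is given as GI50. TGI is the concentration that stops growth completely.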

What was measured:
Assay in all cases: NCI tumour cell line growth inhibition, 48 h
786-0 renal = test system: 786-0 renal
ACHN renal = test system: ACHN renal
BT-549 breast = test system: BT-549 breast
MALME-3M melanoma = test system: MALME-3M melanoma
NCI-H522 lung = test system: NCI-H522 lung
NCI/ADR-RES ovarian = test system: NCI/ADR-RES ovarian
RXF 393 renal = test system: RXF 393 renal
SF-268 CNS = test system: SF-268 CNS
SK-MEL-5 melanoma = test system: SK-MEL-5 melanoma
SN12C renal = test system: SN12C renal

Row | Compound | TGI (786-0 renal) [µM] | TGI (ACHN renal) [µM] | TGI (BT-549 breast) [µM] | TGI (MALME-3M melanoma) [µM] | TGI (NCI-H522 lung) [µM] | TGI (NCI/ADR-RES ovarian) [µM] | TGI (RXF 393 renal) [µM] | TGI (SF-268 CNS) [µM] | TGI (SK-MEL-5 melanoma) [µM] | TGI (SN12C renal) [µM] | GI50 (786-0 renal) [µM] | GI50 (ACHN renal) [µM] | GI50 (BT-549 breast) [µM] | GI50 (MALME-3M melanoma) [µM] | GI50 (NCI-H522 lung) [µM] | GI50 (NCI/ADR-RES ovarian) [µM] | GI50 (SF-268 CNS) [µM] | GI50 (SK-MEL-5 melanoma) [µM] | GI50 (SN12C renal) [µM] | GI50 (RXF 393 renal) [µM]
1 | OCc1ccn2c1[C@@H](O)CC2 | > 100 | > 100 | > 100 | > 100 | > 100 | > 100 | > 100 | > 100 | > 100 | > 100 | – | – | – | – | – | – | – | – | – | –
2 | N#CC1=C(N)Oc2cc(O)ccc2C1c1cccc2ccccc12 (stereo not given) | 29.8 | 35 | 29.6 | > 100 | 19.7 | 22.8 | – | 40.4 | 19.4 | 58.3 | 13.4 | 17.2 | 7.52 | 25.8 | 6.08 | 3.98 | 14.5 | 4.83 | 20.4 | –
3 | CCn1c(=O)c2c(=O)c3c4c(oc3oc2c2ccccc21)C(=O)c1ccccc1C4=O | > 100 | – | > 100 | > 100 | > 100 | > 100 | > 100 | > 100 | > 100 | > 100 | > 22.7 | – | > 36 | > 100 | > 100 | 13.8 | > 71 | > 100 | > 100 | > 31.7
4 | NC(=O)OCCn1cc(-c2nc(-c3c[nH]c4ncccc34)cs2)c2ccccc21 | 7.23 | 8.24 | 6.04 | – | 4.42 | > 100 | 5.56 | 6.77 | 2.85 | 32.4 | 2.38 | 2.05 | 1.5 | – | 1.49 | 2.82 | 1.48 | 1.41 | 2.46 | 1.78
5 | C1=C\COCc2cc(ccc2OCCN2CCCC2)Nc2nccc(n2)-c2cccc(c2)COC/1 | 5.18 | 4.8 | 6.66 | 5.32 | 5.23 | 7.35 | 2.9 | 5.77 | – | 4.92 | 3.51 | 1.12 | 4.67 | 2.13 | 3.08 | 2.77 | 2.03 | – | 1.19 | 1.05
6 | COc1ccc(CCNC(=O)c2ccc(NC3=C(Cl)C(=O)N(Cc4ccccc4)C3=O)cc2)cc1OC | > 100 | > 100 | > 100 | – | 89.9 | 64.4 | > 100 | > 100 | 42.3 | > 100 | 3.88 | 43 | 7.68 | – | 4.74 | 22.3 | 26.2 | 6.27 | 23.9 | 7.83
7 | COc1cc2c(c(OC)c1OC)-c1ncc3cc4c(cc3c1C2)OCO4 | > 100 | 73.6 | 20.1 | – | 45.9 | > 100 | 83.8 | – | 36.5 | 40.8 | 30.2 | 28.8 | 3.76 | – | 18.9 | 32.1 | – | 17.4 | 13.4 | 24.2
8 | O[C@H](c1cc(C(F)(F)F)nc2c(C(F)(F)F)cccc12)[C@@H]1CCCCN1 | 12.5 | 10.7 | 25.5 | 5.73 | – | 9.49 | 13.5 | 15 | 8.09 | 14 | 4.68 | 2.82 | 12.1 | 0.875 | – | 3.09 | 3.54 | 3.64 | 4.19 | 3.82
9 | N#Cc1c(N/N=C/c2ccc(Cl)cc2Cl)nc(N)nc1N1CCCC1 | 47.6 | 90.2 | > 100 | – | > 100 | 82.4 | 66.2 | > 100 | > 100 | > 100 | 19.5 | 24.5 | > 100 | – | 28.9 | 19.4 | 68.3 | 21.5 | 51.9 | 21.5
10 | c1ccc2nc3c(nc2c1)sc1ccccc13 | 64.2 | 35.7 | > 100 | > 100 | > 100 | > 100 | – | 46.1 | > 100 | > 100 | – | – | – | – | – | – | – | – | – | –
11 | COc1ccc(-c2coc3c4c(ccc3c2=O)OCO4)cc1OC | > 100 | > 100 | > 100 | – | > 100 | > 100 | – | > 100 | > 100 | > 100 | – | – | – | – | – | – | – | – | – | –
12 | O=C1c2ccccc2-c2c1c1ccccc1c(=O)n2CCCCl | 18.2 | 12.3 | 58.3 | – | > 100 | 73.3 | – | 80.8 | > 100 | 51.8 | 4.86 | 3.03 | 14.6 | – | 37.4 | 16.9 | 10.3 | 5.92 | 12.1 | –
